Data on one substance can be found in patent US10746738B2, “Claudin-1 peptide reagents and methods” (THE REGENTS OF THE UNIVERSITY OF MICHIGAN, priority 2015, dated 2020).

Entries after “also recorded” stand apart in the source; their conditions may differ.

The subject of one assay is SW620 cells. As to the kind of experiment: Apparent dissociation constant by flow cytometry. In kind it is binding, human. To be noted: 0-200 nM, 1 h at 4° C., R^2=0.95. Here is the method:
The apparent dissociation constant of RTS*-Cy5.5 to SW620 cells was measured. SW620 cells were washed two times with PBS+0.5% BSA, then 1×10^5 cells were incubated with RTS*Cy5.5 at dilutions ranging from 0-200 nM for 1 h at 4° C. Cells were then washed of unbound peptide 5 times with PBS+0.5% BSA before analyzing via flow cytometry (FACS Canto, BD). Sample means were used to calculate the equilibrium dissociation constant, kd, via nonlinear regression analysis using GraphPad Prism software.
The apparent dissociation constant (kd) of the peptides to cells in vitro was determined. The fluorescently-labeled peptide was be serially diluted in PBS at concentrations that ranged from 0 to 200 nM in 25 nM increments. Cells were incubated with the peptide, and the mean fluorescence intensities was measured on flow cytometry. The equilibrium dissociation constant kd=1/ka was calculated by performing a least squares fit of the data to the non-linear equation I=(I0+Imaxka[X])/([…]). I0 and Imax are the initial and maximum fluorescence intensities, corresponding to no peptide and at saturation, respectively, and [X] represents the concentration of the bound peptide. This approach is illustrated with RTS*-Cy5.5 in FIG. 3B, where kd=42 nM.
A general note: In flow cytometry, cells or beads pass a laser one at a time.

For assay [1], the system named is proximal human colon specimens. As to the kind of experiment: Immunofluorescence of proximal human colon with claudin-1 peptide and antibody. The procedure:
Formalin-fixed, paraffin-embedded (FFPE) specimens from human proximal colon were obtained from the archived tissue bank in the Department of Pathology at the University of Michigan. 5 μm thick sections were cut, mounted onto glass slides (Superfrost Plus, Fischer Scientific). The tissues were deparaffinized using a standard protocol. The sections were incubated with 3 rounds of xylene (3 min each) and 2 rounds of 100% and 95% ethanol (2 min each), and hydrated with water for 5 min. Antigen retrieval was performed with 10 mM citric acid buffer containing 0.05% Tween 20; pH 6.0. The specimens were placed in a citric acid buffer, maintained at a sub-boiling temperature for 15 min, and then allowed to cool to RT for 30 min. […] Confocal fluorescence images were collected with using a 63× oil immersion objective (Leica TCS SP5 Microsystems). […]
The mean fluorescence intensities from 3 boxes with dimensions of 20×20 μm2 placed completely within the surface epithelium of each image was measured for RTS*-Cy5.5 using custom Matlab software (MathWorks Inc). […]
Co-localization of peptide and antibody binding can be appreciated on these merged images, and the extent is characterized by the Pearson's correlation coefficient ρ. We measured the fluorescence intensities from binding of the RTS*-Cy5.5 peptide in a set of 3 boxes with dimensions of 20×20 μm^2 located at random on cells in the epithelium.

In another assay the target is T1, claudin-1 (CLDN1) (Homo sapiens, UniProt O95832).
T1 construct: endogenous in cells; host or cells: SW620 human colorectal adenocarcinoma cells
T1 sequence (O95832 1-211): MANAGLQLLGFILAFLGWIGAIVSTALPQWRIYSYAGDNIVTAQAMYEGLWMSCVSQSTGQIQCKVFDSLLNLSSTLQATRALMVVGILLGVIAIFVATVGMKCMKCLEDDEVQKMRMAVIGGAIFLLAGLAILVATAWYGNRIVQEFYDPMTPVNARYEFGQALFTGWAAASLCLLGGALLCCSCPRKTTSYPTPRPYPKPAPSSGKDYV
As to the kind of experiment: siRNA knockdown of CLDN1 expression, peptide and antibody binding to SW620 cells. The class given is cell-based. The procedure: CLDN1 expression was knocked down using Dharmacon On-Target Plus SMARTpool Human CLDN1 siRNA (Thermo Scientific) according to the manufacturer's protocol. SW620 cells were plated overnight on coverslips in a 12-well plate at 0.2×10^6 cells/mL. The following day, cells were transfected with 3 μL DharmaFECT1 and either 25 nM CLDN1 or control siRNA. After 72 h, transfected cells were analyzed for CLDN1 expression through immunocytochemistry, a peptide binding study, or a Western blot of the cell lysate. For the immunocytochemistry experiment, cells were fixed with ice-cold methanol for 20 minutes at −20° C., blocked for 1 h at RT with PBS+2% BSA, stained with anti-human CLDN1 antibody at 5 μg/mL for 1 h at RT, then with goat anti-Rabbit AF488 (1:500) for 1 h at RT before being mounted on slides with DAPI with Prolong Gold. siRNA-transfected cells were also stained with 5 μM RTS-Cy5.5 or SPT-Cy5.5 for 30 minutes at 4° C., fixed with 4% PFA for 10 minutes at RT, then mounted on slides. Simultaneously, transfected cells were lysed with RIPA buffer containing Roche Mini-Complete EDTA-free Protease Inhibitor for 10 minutes on ice, collected and spun at 20,000×g for 10 minutes at 4° C. Supernatant was saved, total protein concentration quantified via a BCA assay, and 10 ug protein of each sample run on a Novex 4-20% 1.5 mm protein gel before transferring to a PVDF membrane. The membrane was blocked with PBST+5% non-fat milk for 1 h at 4° C., stained with either rabbit anti-CLDN1 Ab or mouse anti-tubulin Ab at 4° C. overnight, then with anti-rabbit HRP (1:500, for CLDN1) or anti-mouse HRP (1:500, for tubulin) for 1 h at RT before developing.
The specificity of peptide binding was validated on siRNA knockdown. […] These cells were transfected with siRNA to knockdown cell surface expression of claudin-1. […] The fluorescence intensities (mean±std) are shown (FIG. 2H). […] Given the experimental design and mean-squared-errors shown in FIG. 2H, with triplicate slides we have 98% power to obtain P<0.01 for interactions that show a 3-fold difference of differences.

With “RTS*-Cy5.5: RTSPSSR labeled at the C-terminus with Cy5.5 via a GGGSK linker”, in the assay on SW620 cells, the Kd worked out at 42 nM. Moreover, the “binding on confocal microscopy” value is given as “minimal fluorescence intensity; also recorded: minimal binding” in assay [1] (normal colonic mucosa and hyperplastic polyps); “strong binding; also recorded: found to bind; also recorded: Strong staining” in assay [1] (sessile serrated adenomas (SSA) and adenomas). The “signal for siCL versus siCLDN1 cells” value in the assay with claudin-1 (CLDN1) (SW620 cells, control siRNA versus CLDN1 siRNA, 3 replicate slides) is reported as 10.5 fold-change. Moreover, in the assay with claudin-1 (CLDN1) (confocal microscopy), the “binding to the surface of SW620 cells” value was “strong binding”.
